# Measured values: patent publication US9815883B2, “Inhibiting peptides derived from TREM-like transcript 1 (TLT-1) and uses thereof” (Institut National de la Sante et de la Recherche Medicale …, priority 2010, dated 2017)
# Tests used:
# TREM-1 [1] = assay: NF-kB activity measurement (nuclear p50/p65 ELISA) in neutrophils; format: cell-based, human; conditions: LPS 0.1 μg/mL with or without αTREM-1; peptide 30 μg/mL
# Description: (C) NF-κB nuclear translocation: ELISA of nuclear p50 and p65 NF-kB subunits of neutrophils treated for 2 hours.
# Stimulated cells were collected, nuclear extracts obtained by nuclear extraction kit and NFkB activity measured with human p50/p65 combo transcription factor assay kit (Cayman Chemical) following the manufacturers' instructions.
# neutrophils or monocytes = assay: Flow cytometry binding to neutrophils or monocytes; set-up: species or system human; conditions: cells not expressing TREM-1 ligand
# Description: PMNs were isolated by a Sodium Diatrizoate 13.8%/Dextran 500 8.0% density gradient (polymorphprep, AbCys). Monocytes were isolated by negative cell-sorting of PB-MNCs by Monocytes Isolation Kit II (Miltenyi). Cells were then washed twice with PBS (BioMerieux) and resuspended in complete medium (RPMI 1640 containing 100 UI/mL penicillin, 100 μg/mL streptomycin, […] Amphotericin B and 10% FCS, Eurobio) before stimulation. Purity was assessed by flow cytometry (anti-CD45, -CD14 and -CD66b, Beckman Coulter).
# Isolated cells (neutrophils, monocytes or platelets) were blocked for aspecific binding with 10% human Ig (Sigma-Aldrich) for 1 hour on ice. Cells were incubated with recombinant soluble FITC-labelled TLT-1-peptides, FITC-labelled LP17 (or corresponding FITC-labelled scrambled peptides), PE-labelled anti-TREM-1 mAb (R&Dsystems), CD62P-FITC, CD66b-PE, CD45-PE, CD14-FITC (all from Beckman Coulter)
# TREM-1 [2] = assay: CARD9-MALT1-BCL10 complex formation (immunoprecipitation) in neutrophils; format: cell-based, human; conditions: peptide 30 μg/mL
# Description: (B) CARD9-MALT1-BCL10 complex formation: Immunoblot of MALT-1 after immunoprecipitation with anti-BCL10 mAb of lysates of neutrophils stimulated for 20 minutes.
# (B) […] complex formation: Immunoblot of MALT-1 after immunoprecipitation with anti-BCL10 mAb of lysates of neutrophils stimulated for 20 minutes.
# Cells were lysed with CytoBuster Protein Extraction Reagent (Novagen). Samples were normalized by total protein concentration and lysates were pre-cleared before performing Immunoprecipitation. Pre-cleared lysates were then incubated overnight at 4° C. with rabbit-anti-Bcl10 mAb (Cell Signaling) or rabbit-anti-CARD9 (Antibodies Online). Thereafter, anti-rabbit-Ig beads (eBioscience) were added for 1 hour at room temperature. Beads were then washed 3 times, denatured in Laemli buffer 5 minutes at 95° C. and centrifuged at 16,000 g for 1 min.
# TREM-1 [3] = assay: ROS production by neutrophils (DCFDA, flow cytometry); format: cell-based, human; conditions: peptide 30 μg/mL
# Description: (D) ROS production: Flow cytometric quantification (DCFDA reduction) of neutrophils ROS production after 2 hours stimulation.
# The quantitative determination of neutrophil phagocytosis and oxidative burst was performed by flow cytometry using the Phagotest and the Bursttest (Orpegen Pharma, Heidelberg, Germany) following the manufacturers' recommendations. A FITC-labelled opsonized E. coli was used to determine the general phagocytic activity (ingestion of one or more bacteria per cell) and the individual cellular phagocytic activity (number of bacteria per cell). For evaluation of oxidative burst activity, unlabeled opsonized E. coli, fMLP, PMA LPS and activated- or non-activated-platelets (30:1) were used as stimulants and DCFDA as a fluoregenic substrate (Invitrogen) accordingly with manufacturers' instructions.
# male Balb/c mice = assay: Caecal ligation and puncture (CLP) polymicrobial sepsis model; format: in vivo, mouse
# Description: Adult male Balb/c mice (20-23 g) were subjected to caecal ligation and puncture under isoflurane anaesthesia and were randomly grouped (n=5-10 per group) to receive a single LR17 (100 μg in 0.2 mL NaCl 0.9%), scrambled-LR17 ([…] in 0.2 mL NaCl 0.9%), or 0.2 mL NaCl 0.9% i.p. injection. After 24 hours, animals were killed under anaesthesia. Results are mean±SD. p values are *p<0.05, **p<0.01, ***p<0.001 compared with control animals.
# (A-B) Adult male Balb/c mice (20-23 g) were subjected to caecal ligation and puncture under isoflurane anaesthesia and were randomly grouped (n=25-40 per group) to receive a LR17, scrambled-LR17, or 0.2 mL NaCl 0.9% i.p. injection at indicated times. Survival was monitored over 1 wk and analyzed by Log Rank test.
# Male Balb/c mice (4-6 weeks) were anesthetized with isoflurane. The cecum was exposed through a 1.0 cm abdominal midline incision and subjected to a ligation of the distal half followed by one puncture with a G21 needle. A small amount of stool was expelled from the puncture to ensure patency. The cecum was replaced into the peritoneal cavity and the abdominal incision closed in two layers. After surgery, all mice were injected s.c. with 0.5 mL of 0.9% NaCl solution for fluid resuscitation. The animals were randomly grouped and treated LR17 or LR17-scrambled as control in 250 μL 0.9% NaCl solution and administered i.p. In order to determine the effect of various doses of LR17 at different times, mice were treated with 50, 100 or 200 μg of LR17 at H1 after surgery, or with 3 injections of 100 μg at 2, 6 and 24 hours or with 100 μg in one injection at 24 hours after CLP and then monitored for survival. Five additional animals per group were killed under anaesthesia at 24 h after CLP for the determination of bacterial count and cytokines levels. Peritoneal lavage fluid was obtained using 2 mL RPMI 1640 (EuroBio), and blood was collected by cardiac puncture. Concentrations of plasma cytokines were determined by ELISA (R&Dsystems). For the assessment of bacterial counts, blood and crushed spleen were plated in serial log dilutions on tryptic soy supplemented with 5% sheep blood agar plates. After plating, tryptic soy agar plates were incubated at 37° C. aerobically for 24 h and anaerobically for 48 h. Results are expressed as CFU per ml of blood or per gram of spleen.
# [4] = LPS 0.1 μg/mL with or without αTREM-1
sequence,measurement,setting,value
LQEEDAGEYGCMVDGAR (listed as Homo sapiens) [LR17],NF-κB translocation,TREM-1 [1],decreased
same,binding to neutrophils or monocytes,neutrophils or monocytes,did not bind
same,CARD9-MALT1-BCL10 complex formation,TREM-1 [2]; [4],decreased
same,CARD9-MALT1-BCL10 complex formation,"TREM-1 [2]; αTREM-1 5 μg/mL, 20 minutes",reversed
same,intracellular ROS production,TREM-1 [3]; [4],decreased
same,ROS production by neutrophils,"TREM-1 [3]; TREM-1 agonist and platelets as inducers, 2 hours",partly prevented
same,plasma IL-6 and IL-10 concentrations,"male Balb/c mice; 100 μg i.p. 2 hours after surgery, 24 hours after surgery",decreased
same,repeated injections versus single dose administration,"male Balb/c mice; 3 injections of 100 μg at 2, 6 and 24 hours",not superior
same,protection against lethality (survival),"male Balb/c mice; 50, 100 or 200 μg, also administered 24 h after onset of sepsis, survival over 1 wk, Log Rank test",dose-dependent significant protection
same,septicaemia (blood bacterial counts),male Balb/c mice; 24 hours,almost completely prevented septicaemia
same,IL-6 and IL-10 in broncho-alveolar lavage fluid and peritoneal lavage fluid,male Balb/c mice; 24 hours after surgery,decreased
same,lung histological alterations,male Balb/c mice; 24 hours after the CLP,attenuated
same,cell infiltration in peritoneum and alveolar space,"male Balb/c mice; mouse, in vivo",reduced
same,coagulation abnormalities (D-dimer and TATc plasma and alveolar concentrations),"male Balb/c mice; mouse, in vivo",prevented
same,"plasma levels of C5a, IL-1ra, IL16, MCP-1, MIP-la, MIP-2 (cytokine array)","male Balb/c mice; mouse, in vivo",decreased concentration
